Values quoted from earlier work as cited in patent US20060167044A1, “Piperidine derivatives and their use as anti-inflammatory agents” (priority 2004, published 2006).

Test system: UUO kidneys
Conditions: mouse, in vivo

Structure (SMILES): C[C@@H]1CN(Cc2ccc(F)cc2)CCN1C(=O)COc1ccc(Cl)cc1NC(N)=O [BX 471]
- CD8+/CCR5+ T cells (FACS analysis): comparable reduction
